These are literature values, as cited in patent US7943666B2, “Esters of capsaicin for treating pain” (Trinity Laboratories, Inc., priority 2006, dated 2011).

The conditions of data set [1]: rats, i.v. administration.
The conditions of data set [2]: 540 mg per day orally for 30 days plus topical as needed; arthritis not responding to NSAIDs.

As to `COc1cc(CNC(=O)CCCCC=CC(C)C)ccc1O` [capsaicin, 8-methyl-N-vanillyl-6-nonenamide], the “Time to distribution to brain, spinal cord, liver and blood” value in data set [1] was at most 20 min.

As for `CCCC/C=C\CCCCCCCC(=O)OCCCCCCCCCCCCCCCC` [cetyl myristoleate, cis-9-cetyl myristoleate], the Individuals improved in data set [2] is given as 63.5%.
